Patent US20210030719A1, “GRP94 INHIBITORS TO TREAT STEROID-INDUCED OCULAR HYPERTENSIONS AND GLAUCOMAS” (UNIVERSITY OF SOUTH FLORIDA, priority 2018, published 2021)

Key:
[1] = system: human trabecular meshwork (HTM) cells; experiment: HTM cell lysates, intracellular Collagen I and Fibronectin (Western blot); assay type: cell-based
Method: (§1) HTM Treatments: Low passage number human trabecular meshwork (HTM) cells were cultured in DMEM supplemented with 10% fetal bovine serum and 1% penicillin/streptomycin. HTM cells were treated for 10 days (replaced every 2-3 days) with 100 nM dexamethasone. HTM cells were validated by expression of myocilin under these conditions.
(§2) Western and Dot Blots: Anterior eye segments and HTM cells were lysed in RIPA buffer. HTM lysates were separated by SDS-PAGE and transferred to a PVDF membrane. Lysates and culture media for dot blots were applied to a nitrocellulose membrane. Blots were blocked in 7% non-fat milk solution. Myocilin antibody was provided by W. D. Stamer. Collagen I and Fibronectin antibodies were purchased from Santa Cruz Biotechnology. Actin antibody was purchased from Sigma Aldrich (St. Louis, Mo.). Blots were developed using species specific secondary antibodies from Southern Biotech.
(§3) Quantification and Statistical Analysis: Two-tailed student's t-test and two-way ANOVA with Bonferroni's post-hoc tests were used as detailed in the figure legends. Values were considered significant if p<0.05. Graphs were generated using GraphPad Prism 5.0 analysis software or Microsoft Excel. N-value in this study is depicted as number of animals or number of eyes where indicated. Graphs are plotted as ±SEM or % CV as indicated.

mutant myocilin = experiment: Cellular studies of mutant myocilin degradation; assay type: cell-based
[2] = system: ECM components (Collagen I, Fibronectin); experiment: ECM components in lysates of anterior eye sections of SIG model mice (dot blot / Western blot); assay type: in vivo, mouse; conditions: dex & 4Br-BnIm treated group; overall not statistically significant
Source text: Animal Husbandry: Mice were housed and bred at the University of South Florida Byrd Alzheimer's Institute. All animal procedures performed in this study followed the ARVO Statement for the Use of Animals in Ophthalmic and Vision Research and were approved by the University of South Florida Institutional Animal Care and Use Committee. A cohort of 35 animals from separate litters were used for this study; 20 male mice (10 WT and 10 Myoc-KO) and 15 female mice (8 WT and 7 Myoc-KO). […] Technicians performing the drug delivery and tonometry measurements were blinded for animal genotype as well as each compound and the respective vehicle treatment. […] No other treatment groups or geneotypes suffered losses. One WT animal on the Dex+4Br—BnIm study began the study with only one eye. […] 4Br—BnIm treatment dose was based on previous studies. […] The drop was allowed to sit on the eye for 1 minute before the mouse was returned to its cage. One drop of 0.1% Dexamethasone eye drops (Dexamethasone Sodium Phosphate Ophthalmic Solution USP, 0.1% Dexamethasone Phosphate Equivalent; Bauch and Lomb) or PBS (vehicle) was applied to each eye. Dexamethasone treatments were conducted at 6:30 AM, 9 AM, and 2 PM, every day. […]
Quantification and Statistical Analysis: Two-tailed student's t-test and two-way ANOVA with Bonferroni's post-hoc tests were used as detailed in the figure legends. […]

Wild-type (WT) mice = experiment: Mouse model of steroid-induced glaucoma, IOP by rebound tonometer, WT mice; assay type: in vivo; conditions: 0.1% dexamethasone topically to the eye three times per day
Method: A cohort of 35 animals from separate litters were used for this study; 20 male mice (10 WT and 10 Myoc-KO) and 15 female mice (8 WT and 7 Myoc-KO). […] Technicians performing the drug delivery and tonometry measurements were blinded for animal genotype as well as each compound and the respective vehicle treatment. […] The drop was allowed to sit on the eye for 1 minute before the mouse was returned to its cage. One drop of 0.1% Dexamethasone eye drops (Dexamethasone Sodium Phosphate Ophthalmic Solution USP, 0.1% Dexamethasone Phosphate Equivalent; Bauch and Lomb) or PBS (vehicle) was applied to each eye. Dexamethasone treatments were conducted at 6:30 AM, 9 AM, and 2 PM, every day.
IOP Measurements: IOP levels in the mouse eye were obtained using the Icare TonoLab rebound tonometer and their guidelines were followed (Icare, Finland). Measurements were taken at LOAM to control for diurnal fluctuations in IOP levels which occur throughout the day. Mice were anesthetized with 3-4% isoflurane in oxygen once a week. After mice were sufficiently anesthetized, the mice were placed in an open restraint platform and IOP measurements were taken for each eye. […]

[3] = system: human trabecular meshwork (HTM) cells; experiment: HTM cell culture medium, extracellular proteins (dot blot); assay type: cell-based; conditions: dexamethasone
Method: as §1, §2, §3

[4] = HTM cells treated with dex, 24 hours after Grp94 inhibitor treatment
[5] = HTM cells, 4Br-BnIm in the absence of dexamethasone

Structure (SMILES) | intracellular Collagen I levels [1, 4] | intracellular Fibronectin levels [1, 4] | Intracellular Collagen I [1, 5] | Intracellular Fibronectin [1, 5] | effect on toxic mutant myocilin (mutant myocilin) | Collagen I in anterior eye lysates [2] | Fibronectin in anterior eye lysates [2] | increase in IOP (Wild-type (WT) mice) | increase of extracellular myocilin [3]
COC(=O)c1c(O)cc(O)c(Cl)c1CCc1nccn1Cc1ccc(Br)cc1 [4Br—BnIm, methyl 2-(2-(1(4-bromobenzyl)-1H-imidazol-2-yl)ethyl)-3-chloro-4,6-dihydroxybenzoate] | statistically significant decreases | statistically significant decreases | unchanged | unchanged | degradation of toxic mutant myocilin | decrease in the mean values | decrease in the mean values | – | –
C[C@@H]1C[C@H]2[C@@H]3CCC4=CC(=O)C=C[C@]4(C)[C@@]3(F)[C@@H](O)C[C@]2(C)[C@@]1(O)C(=O)CO [dexamethasone] | – | – | – | – | – | – | – | roughly 33% | over 500%
